Assay results: ChEMBL document CHEMBL5046231, “Modulation of Naturally Occurring Linear Dipeptide Chirality to Reduce the Affinity for Oligopeptide Transporter 1 and Increase Intestinal Stability for an Enhanced Colon-Targeting Effect in the Treatment of Inflammatory Bowel Disease: An Application of trans-4-l-Hydroxyprolyl-l-serine” (J Med Chem, 2022)

Tests used:
[1] = Metabolic stability in healthy C57BL/6 mouse jejunum assessed as half life measured up to 12 hrs by HPLC analysis; format: ADME, tissue-based
Mus musculus [2] = assay: Anti-colitis activity against DSS-induced C57BL/6 mouse model of colitis assessed as fold change in body weight recovery at 25 to 100 mg/kg, po administered via gavage twice a day for 10 days relative to SASP; format: functional; details: dose 25-100 mg/kg; time 10 day
[3] = Toxicity in healthy C57BL/6 mouse assessed as histological changes in liver at 100 mg/kg, po administered for 10 days by H and E staining based assay; format: organism-based; details: in vivo, 240 h, time 10 day
[4] = Chemical stability in 0.1 M HCl at pH 1.2 assessed as half life measured up to 12 hrs by HPLC analysis; format: physicochemical
Mus musculus [5] = assay: Anti-colitis activity against DSS-induced colitis in C57BL/6 mouse model assessed as decrease in MPO level in colon at 25 mg/kg, po administered via gavage twice a day for 10 days; format: functional; parameters: scale not given: the % may be the effect or the level left; details: time 10 day
Mus musculus [6] = assay: Anti-colitis activity against DSS-induced C57BL/6 mouse model of colitis assessed as decrease in MPO level in colon at 100 mg/kg, po administered via gavage twice a day for 10 days; format: functional; parameters: scale not given: the % may be the effect or the level left; details: time 10 day
[7] = AUC (0 to 6 hrs) in DSS-induced colitis C57BL/6 mouse model at 25 mg/kg, po measured up to 6 hrs by UPLC-MS/MS analysis; format: ADME, organism-based; parameters: route oral, dose 25 mg/kg, time <=6; details: in vivo
[8] = Metabolic stability in healthy C57BL/6 mouse colon assessed as half life measured up to 12 hrs by HPLC analysis; format: ADME, tissue-based
[9] = Toxicity in healthy C57BL/6 mouse assessed as histological changes in spleen at 100 mg/kg, po administered for 10 days by H and E staining based assay; format: organism-based; details: in vivo, 240 h, time 10 day
[10] = Stability in simulated gastric fluid at pH 1.2 assessed as half life measured up to 12 hrs by HPLC analysis; format: ADME
[11] = Chemical stability in phosphate buffer at pH 7.2 assessed as half life measured up to 12 hrs by HPLC analysis; format: physicochemical
Mus musculus [12] = assay: Anti-colitis activity against DSS-induced colitis in C57BL/6 mouse model assessed as fold decrease in disease activity index at 25 mg/kg, po administered via gavage twice daily for 10 days relative to control; format: functional; details: time 10 day
Mus musculus [13] = assay: Anti-colitis activity against DSS-induced C57BL/6 mouse model of colitis assessed as fold change in disease activity index at 25 to 100 mg/kg, po administered via gavage twice a day for 10 days relative to SASP; format: functional; details: dose 25-100 mg/kg; time 10 day

O=C(O)[C@@H](CO)NC(=O)[C@H]1C[C@@H](O)CN1
half-life [1]: > 12 h
fold change (FC) (Mus musculus [2]): 2.1
Activity [3]: Non-Toxic
half-life [4]: > 12 h
Activity (Mus musculus [5]): 72.8%
Activity (Mus musculus [6]): 59.7%
AUC [7]: 54.65 microM/L.hr
half-life [8]: > 12 h
Activity [9]: Non-Toxic
half-life [10]: > 12 h
half-life [11]: > 12 h
fold change (FC) (Mus musculus [12]): 1.5
fold change (FC) (Mus musculus [13]): 2.3
